According to EP1157024B1, “ACETYLENIC ORTHO-SULFONAMIDO AND PHOSPHINIC ACID AMIDO BICYCLIC HETEROARYL HYDROXAMIC ACIDS AS TACE INHIBITORS” (American Cyanamid Company, priority 1999, dated 2000):
Like-named read-outs stand apart in the source and are kept apart here.

Experiments:
THP-1 cells = test: THP-1 soluble protein assay (human monocytic THP-1 cell differentiation assay); format: cell-based; conditions: read-out: THP % inhibition at 3µM, LPS-stimulated THP-1 cells
Source text: Mitogenic stimulation of THP-1 cells cause differentiation into macrophage like cells with concomitant secretion of tumor necrosis factor (TNF-•) and TNF receptor (TNF-R p75/80 and TNF-R p55/60) and Interleukin-8 (IL-8), among other proteins. In addition, non-stimulated THP-1 cells shed both the p75/80 and the p55/60 receptors over time. […] THP-1 cells (from ATCC) are a human monocytic cell line which were obtained from the peripheral blood of a person with acute monocytic leukemia. They can be grown in culture and differentiated into macrophage like cells by stimulation with mitogens. For the assay, THP-1 cells are seeded from an ATCC stock which was previously grown and frozen back at 5 x 10^6/ml/vial. […] Each vial of cells are cultured for about two weeks prior to being used for an assay and then are used for only 4 to 6 weeks to screen compounds. Cells are subcultured on Mondays and Thursdays to a concentration of 1 x 10^5/ml. […] At the same time, […] of drug, vehicle or THP-1 media is plated in appropriate wells to give a final volume of 1.2 ml/well. […] Cell exposure to DMSO was limited to 0.1 % final concentration. Positive control wells were included in the experiment which had mitogen added but no drug. Vehicle control wells were included as well, which were identical to the positive control wells, except that DMSO was added to give a final concentration of 0.083%. Negative control wells were included in the experiment which had vehicle but no mitogen or drug added to the cells. Compounds can be evaluated for their effect on basal (non-stimulated) shedding of the receptors by replacing the LPS with […] of THP-1 media. Plates are placed into an incubator set at 5% CO2 and at 37 °C. After 4 hours of incubation, […] of tissue culture supernatant (TCS) is removed for use in an TNF-α ELISA. Following 24 hours of incubation, […] of TCS is removed and used for analysis in TNF-R p75/80, TNF-R p55/60 and IL-8 ELISAs. In addition, at the 24 hours timepoint, and the cells for each treatment group are collected by resuspension in 500 µl/well of THP-1 media and transferred into a FACS tube. Two ml/tube of a 0.5 mg/ml stock of propidium iodide (PI) (Boerhinger Mannheim cat. # 1348639) is added. The samples are run on a Becton Dickinson FaxCaliber FLOW cytometry machine and the amount of dye taken up by each cell is measured in the high red wavelength (FL3). Only cells with compromised membranes (dead or dying) can take up PI. The percent of live cells is calculated by the number of cells not stained with PI, divided by the total number of cells in the sample. The viability values calculated for the drug treated groups were compared to the viability value calculated for the vehicle treated mitogen stimulated group ("vehicle positive control") to determine the "percent change from control". This "percent change from control" value is an indicator of drug toxicity. The quantity of soluble TNF-α, TNF-R p75/80 and TNF-R p55/60 and IL-8 in the TCS of the THP-1 cell cultures are obtained with commercially available ELISAs from R&D Systems, by extrapolation from a standard curve generated with kit standards. The number of cells that either take up or exclude PI are measured by the FLOW cytometry machine and visualized by histograms using commercially available Cytologic software for each treatment group including all controls. […]

MMP-9 = MMP-9 (Homo sapiens, UniProt P14780); test: MMP-9 inhibition (thiopeptide or fluorescent peptide substrate); format: biochemical
Sequence of MMP-9 (P14780 94-707): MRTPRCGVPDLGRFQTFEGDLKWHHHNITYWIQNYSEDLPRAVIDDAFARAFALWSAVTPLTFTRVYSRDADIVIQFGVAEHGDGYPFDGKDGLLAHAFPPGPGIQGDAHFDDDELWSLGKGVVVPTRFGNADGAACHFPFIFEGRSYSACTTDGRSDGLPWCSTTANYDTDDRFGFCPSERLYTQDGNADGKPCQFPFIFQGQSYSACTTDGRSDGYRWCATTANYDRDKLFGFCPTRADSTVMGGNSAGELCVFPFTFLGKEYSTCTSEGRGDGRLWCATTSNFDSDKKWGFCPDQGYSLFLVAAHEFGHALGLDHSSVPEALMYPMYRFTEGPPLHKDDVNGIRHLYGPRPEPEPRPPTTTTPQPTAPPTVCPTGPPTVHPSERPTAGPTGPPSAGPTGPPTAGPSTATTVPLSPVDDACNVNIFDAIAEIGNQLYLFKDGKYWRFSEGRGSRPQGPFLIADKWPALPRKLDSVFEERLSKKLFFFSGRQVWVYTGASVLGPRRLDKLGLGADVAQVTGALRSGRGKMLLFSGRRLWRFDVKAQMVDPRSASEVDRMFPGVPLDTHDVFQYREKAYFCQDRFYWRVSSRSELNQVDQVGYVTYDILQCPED
Procedure: (§1) The enzyme activity is measured by the rate of the color increase. The thiopeptide substrate is made up fresh as a 20 mM stock in 100% DMSO and the DTNB is dissolved in 100% DMSO as a 100 mM stock and stored in the dark at room temperature. Both the substrate and DTNB are diluted together to 1 mM with substrate buffer (50 mM HEPES pH 7.5, 5 mM CaCl2) before use. The stock of enzyme is diluted with buffer (50 mM HEPES, pH 7.5, 5 mM CaCl2, 0.02% Brij) to the desired final concentration.
(§2) Alternatively, a fluorescent peptide substrate is used. In this test procedure, the peptide substrate contains a fluorescent group and a quenching group. Upon cleavage of the substrate by an MMP, the fluorescence that is generated is quantitated on the fluorescence plate reader. The assay is run in HCBC assay buffer (50mM HEPES, pH 7.0, 5 mM Ca^+2, 0.02% Brij, 0.5% Cysteine), with human recombinant MMP-1, MMP-9, or MMP-13. The substrate is dissolved in methanol and stored frozen in 1 mM aliquots. For the assay, substrate and enzymes are diluted in HCBC buffer to the desired concentrations. Compounds are added to the 96 well plate containing enzyme and the reaction is started by the addition of substrate.
(§3) For either the thiopeptide or fluorescent peptide test procedures, the slope of the line is calculated and represents the reaction rate. The linearity of the reaction rate is confirmed (r^2 >0.85).

MMP-13 = MMP-13 (Homo sapiens, UniProt P45452); test: MMP-13 inhibition (thiopeptide or fluorescent peptide substrate); format: biochemical
Procedure: as §1, §2, §3

[1] = target: TNF-α converting enzyme (TACE) (Homo sapiens, UniProt P78536); test: TACE inhibition (fluorescent peptidyl substrate); format: biochemical
Sequence of TNF-α converting enzyme (TACE) (P78536 215-824, species assumed): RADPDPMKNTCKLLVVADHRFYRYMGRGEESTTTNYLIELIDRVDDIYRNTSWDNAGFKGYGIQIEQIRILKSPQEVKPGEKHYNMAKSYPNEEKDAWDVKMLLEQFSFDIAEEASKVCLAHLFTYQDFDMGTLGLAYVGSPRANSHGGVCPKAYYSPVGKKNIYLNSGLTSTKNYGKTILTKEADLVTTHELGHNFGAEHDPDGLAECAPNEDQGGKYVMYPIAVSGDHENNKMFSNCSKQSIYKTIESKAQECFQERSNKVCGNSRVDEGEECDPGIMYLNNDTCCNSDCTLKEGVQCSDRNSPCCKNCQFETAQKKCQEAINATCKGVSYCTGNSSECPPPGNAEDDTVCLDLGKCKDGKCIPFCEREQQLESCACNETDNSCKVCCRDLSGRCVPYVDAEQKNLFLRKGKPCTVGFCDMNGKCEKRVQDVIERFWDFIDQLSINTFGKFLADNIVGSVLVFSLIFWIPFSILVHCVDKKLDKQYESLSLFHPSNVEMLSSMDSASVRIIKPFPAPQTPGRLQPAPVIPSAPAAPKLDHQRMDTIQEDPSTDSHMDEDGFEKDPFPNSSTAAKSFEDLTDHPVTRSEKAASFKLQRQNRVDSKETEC
Procedure: Using 96-well black microtiter plates, each well receives a solution composed of 10 µL TACE (final concentration 1µg/mL), 70µL Tris buffer, pH 7.4 containing 10% glycerol (final concentration 10 mM), and 10 µL of test compound solution in DMSO (final concentration 1µM, DMSO concentration <1%) and incubated for 10 minutes at room temperature.
The reaction is read (excitation 340 nm, emission 420 nm) for 10 min. and the increase in fluorescence over time is plotted as a linear line. The slope of the line is calculated and represents the reaction rate.
The linearity of the reaction rate is confirmed (r^2 >0.85). The mean (x±em) of the control rate is calculated and compared for statistical significance (p<0.05) with drug-treated rates using Dunnett's multiple comparison test.

Row | Structure (SMILES) | inhibition at 3 µM (THP-1 cells) [%] | IC50 (MMP-9) [µM] | IC50 (MMP-13) [µM] | IC50 [1] [µM] | IC50 (MMP-13; read-out: MMP-13 IC50) [µM] | IC50 ([1]; read-out: TACE IC50) [µM]
1 | CC#CCOc1ccc(S(=O)(=O)N(C)c2c(C(=O)NO)cnc3snc(C)c23)cc1 [Example 13, 4-[(4-But-2-ynyloxy-benzenesulfonyl)-methyl-amino]-3-methyl-isothiazolo[5,4-b]pyridine-5-carboxylic acid hydroxyamide] | 42 | 0.095 | 0.034 | 0.014 | – | –
2 | CC#CCOc1ccc(S(=O)(=O)N(C)c2c(C(=O)NO)cnc3c(Br)cccc23)cc1 [Example 99, 8-Bromo-4-[{[4-(2-butynyloxy)phenyl]sulfonyl} (methyl)amino]-N-hydroxy-3-quinolinecarboxamide] | 32 | – | – | – | 0.027 | 0.082
3 | CC#CCOc1ccc(S(=O)(=O)N(C)c2c(C(=O)NO)cnc3c2c(C)nn3C)cc1 [Example 7, 4-[(4-But-2-ynyloxy-benzenesulfonyl)-methyl-amino]-1,3-dimethyl-1H-pyrazolo[3,4-b]pyridine-5-carboxylic acid hydroxyamide] | 60 | 0.116 | – | 0.03 | – | –
4 | CC#CCOc1ccc(S(=O)(=O)N(C)c2c(C(=O)NO)cnc3c(OC)cccc23)cc1 [Example 11, 4-[(4-But-2-ynyloxy-benzenesulfonyl)-methyl-amino]-8-methoxy-quinoline-3-carboxylic acid hydroxyamide] | 58 | 0.033 | – | 0.017 | 0.0092 | –
5 | CC#CCOc1ccc(S(=O)(=O)N(C)c2c(C(=O)NO)cnc3onc(C)c23)cc1 [Example 9, 4-[(4-But-2-ynyloxy-benzenesulfonyl)-methyl-amino]-3-methyl-isoxazolo[5,4-b]pyridine-5-carboxylic acid hydroxyamide] | 57 | 0.244 | 0.15 | 0.0059 | – | –
